Entries after “also recorded” stand apart in the source; their conditions may differ.
Key:
[1] = tested on: serotonin and 5-HIAA in rat brain; assay: animal or person; assay type: in vivo, rat (Wistar); conditions: sc, subcutaneous, 1 h after injection, p<0.05 vs control, read-out: Minimum effective dose suppressing 5-HIAA
Protocol: Male Wistar rate (HSD/[WI]BR) weighing about 150 g were kept in a temperature-controlled (24° C.) and light-controlled room (lights on from 7:00 A.M. to 7:00 P.M.) with food and water freely available. The compounds to be tested were dissolved in dilute hydrochloric acid and injected subcutaneously. Five rats per group were used in each experiment. The rats were decapitated one hour after injection and the brains were excised quickly, frozen on dry ice and stored at -15° C. before analysis. […] Neurosci. Abstr. […] Serum corticosterone levels were determined spectrofluorometrically by the method of Solem et al., Scand. J. Clin. Lab. Invest. […] 80, 1.

serum corticosterone = assay: corticosterone concentrations in the serum of rats; assay type: in vivo, rat (Wistar); conditions: sc; subcutaneous; rat, 1 h after injection; p<0.05 vs control; read-out: Minimum effective dose increasing serum corticosterone
Protocol: (§1) Male Wistar rate (HSD/[WI]BR) weighing about 150 g were kept in a temperature-controlled (24° C.) and light-controlled room (lights on from 7:00 A.M. to 7:00 P.M.) with food and water freely available. The compounds to be tested were dissolved in dilute hydrochloric acid and injected subcutaneously. Five rats per group were used in each experiment. The rats were decapitated one hour after injection and the brains were excised quickly, frozen on dry ice and stored at -15° C. before analysis. […] See Fuller et al., Biochem. Pharmacol. 1977, 26, 2087 and Perry et al., Soc. Neurosci. Abstr. 1979, 5, 348. Serum corticosterone levels were determined spectrofluorometrically by the method of Solem et al., Scand. J. Clin. Lab. Invest. 1965, 17, suppl. 80, 1.
The minimum effective doses of these same compounds which produced a statistically significant decrease in 5-HIAA concentration and a statistically significant increase in serum corticosterone concentration are shown in Table II. The minimum effective dose is the lowest dose producing significant differences from a control group (p<0.05).

5-HT2 receptor = target: T1, 5-HT2 receptor (Rattus norvegicus, UniProt P14842); assay: binding to 5-HT2 sites ([3H]spiperone displacement, rat brain frontal cortex); design: species or system rat (Wistar)
T1 construct: Rat brain frontal cortex from male Wistar rats; from tissue; host or cells: rat brain frontal cortex (male Wistar), membrane pellet
Protocol: The pellet from the frontal cortex homogenates was suspended in 0.05 molar (M) Tris buffer containing 10 micromolar (μM) pargyline and 4 millimolar (mM) Ca^++ to give a final protein concentration of 250-350 microgram (μg) per sample. […] All radioactive ligands were obtained from New England Nuclear, Boston, Mass., USA. Specific binding was determined as the difference between total binding and nonspecific binding. Eleven concentrations of each of the compounds tested were used between 0.1 and 10,000 nM. All samples were run in duplicate.

5-HT1 receptor = assay: binding to 5-HT1 sites ([3H]serotonin displacement, rat brain frontal cortex); design: species or system rat (Wistar); conditions: for IC50: 2 nM [3H]serotonin, rat frontal cortex; for Selectivity Ratio: IC50 5HT2 / IC50 5HT1, values greater than 1 indicate selectivity for the 5HT1 receptor
Protocol: All radioactive ligands were obtained from New England Nuclear, Boston, Mass., USA. Specific binding was determined as the difference between total binding and nonspecific binding. Eleven concentrations of each of the compounds tested were used between 0.1 and 10,000 nM. All samples were run in duplicate.

[2] = tested on: 5-hydroxytryptophan in rat hypothalamus; assay: accumulation of 5-hydroxytryptophan in rat hypothalamus (NSD-1015 treated rats); assay type: in vivo, rat (Wistar); conditions: for 5-Hydroxytryptophan Concentration in Hypothalamus: NSD-1015 100 mg/kg i.p., mean ± SE, n=5, control 1.92 ± 0.07, significant decrease p<0.01
Protocol: as §1
The protocol previously described for neurochemical determinations was repeated with the following modification. To each of the five rats in the treatment group was administered the amino acid decarboxylase inhibitor m-hydroxybenzylhydrazine (also known as NSD-1015). See Euvard et al., Eur. J. Pharmacol. 1980, 63, 65 and Hamon et al., Arch. Pharmacol. 1976, 294, 99. The NSD-1015 was administered at a dose of 100 mg/kg (intraperitoneal) 30 minutes before decapitation and 30 minutes after the dose of the test compound of Example 1 was given.

T1 sequence (P14842 whole entry): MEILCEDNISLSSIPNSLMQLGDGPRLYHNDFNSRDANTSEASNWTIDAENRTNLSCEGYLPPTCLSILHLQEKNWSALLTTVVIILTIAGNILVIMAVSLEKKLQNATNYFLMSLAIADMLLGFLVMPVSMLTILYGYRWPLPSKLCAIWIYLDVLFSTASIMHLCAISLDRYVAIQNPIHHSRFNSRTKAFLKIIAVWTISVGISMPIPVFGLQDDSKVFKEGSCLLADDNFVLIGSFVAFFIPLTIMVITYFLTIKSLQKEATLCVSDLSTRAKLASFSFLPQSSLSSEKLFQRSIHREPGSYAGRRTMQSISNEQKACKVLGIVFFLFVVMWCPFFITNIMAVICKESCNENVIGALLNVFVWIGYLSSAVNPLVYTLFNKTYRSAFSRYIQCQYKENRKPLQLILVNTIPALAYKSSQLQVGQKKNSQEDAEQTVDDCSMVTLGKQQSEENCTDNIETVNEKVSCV

| SMILES | minimal effective dose [1] [mg/kg] | minimal effective dose (serum corticosterone) [mg/kg] | IC50 (5-HT2 receptor) [nM] | IC50 (5-HT1 receptor) [nM] | Selectivity Ratio (5-HT1 receptor) | 5-Hydroxytryptophan Concentration in Hypothalamus ([2]; 0.01 mg/kg subcutaneous) [nanomoles per gram] | 5-Hydroxytryptophan Concentration in Hypothalamus ([2]; 0.03 mg/kg subcutaneous) [nanomoles per gram] | 5-Hydroxytryptophan Concentration in Hypothalamus ([2]; 0.1 mg/kg subcutaneous) [nanomoles per gram] | 5-Hydroxytryptophan Concentration in Hypothalamus ([2]; 0.3 mg/kg subcutaneous) [nanomoles per gram] | 5-hydroxytryptophan accumulation in the hypothalamus (in words) ([2]; NSD-1015 treated rats, 0.01-0.3 mg/kg subcutaneous) | dose of maximal reduction of serotonin turnover ([2]; NSD-1015 treated rats, subcutaneous) [mg/kg] |
| --- | --- | --- | --- | --- | --- | --- | --- | --- | --- | --- | --- |
| C[C@H]1C=C2c3cccc4c3[C@@H](CN4)C[C@H]2N(C)C1 [Example 2, (3β)-2,3-Dihydroisolysergine] | 0.001 | 0.003 | > 1000 | 20 | at least 100 | – | – | – | – | – | – |
| CN1C[C@H](CSc2ccccn2)C=C2c3cccc4c3[C@@H](CN4)C[C@H]21 [Example 8, (3β,5β,8β)-9,10-Didehydro-2,3-dihydro-6-methyl-8-(2-pyridylthiomethyl)ergoline] | – | – | 110 | 3 | 28 | – | – | – | – | – | – |
| CSC[C@@H]1C=C2c3cccc4c3[C@@H](CN4)C[C@H]2N(C)C1 [Example 5, (3β,5β,8β)-9,10-Didehydro-2,3-dihydro-6-methyl-8-(methylthiomethyl) ergoline] | 0.1 | 1 | 1330 | 20 | 66 | – | – | – | – | – | – |
| NCCc1c[nH]c2ccc(O)cc12 [serotonin, 5-hydroxytryptamine, reference compound] | – | – | – | 4 | – | – | – | – | – | – | – |
| COC(=O)[C@@H]1C=C2c3cccc4c3[C@@H](CN4)C[C@H]2N(C)C1 [Example 9, (3β)-2,3-Dihydro-methyllysergate] | – | – | 1620 | 40 | 40 | – | – | – | – | – | – |
| C[C@@H]1C=C2c3cccc4c3[C@@H](CN4)C[C@H]2N(C)C1 [Example 1, (3β)-2,3-Dihydrolysergine] | 0.03 | 0.1 | 1660 | 17 | – | 1.64 ± 0.07 | 1.19 ± 0.05 | 0.73 ± 0.02 | 0.71 ± 0.02 | dose related decrease in 5-hydroxytryptophan accumulation; also recorded: Significant effects were detected at all of the doses used | 0.1 |
| CN1C[C@H](CO)C=C2c3cccc4c3[C@@H](CN4)C[C@H]21 [Example 3, (3β)-2,3-Dihydrolysergol] | 1 | 0.1 | 2650 | 26 | – | – | – | – | – | – | – |
| CN1C[C@H](CC#N)C=C2c3cccc4c3[C@@H](CN4)C[C@H]21 [Example 6, (3β,5β,8β)-9,10-Didehydro-2,3-dihydro-6-methylergoline-8-acetonitrile] | 0.1 | 0.1 | 2120 | 20 | – | – | – | – | – | – | – |
| CCCN1C[C@H](C)C=C2c3cccc4c3[C@@H](CN4)C[C@H]21 [Example 10, (3β,5β,8β)-9,10-Didehydro-2,3-dihydro-8-methyl-6-propylergoline] | – | – | > 1000 | 240 | – | – | – | – | – | – | – |
| CN1C[C@H](CSc2ccccc2)C=C2c3cccc4c3[C@@H](CN4)C[C@H]21 [Example 7, (3β,5β,8β)-9,10-Didehydro-2,3-dihydro-6-methyl-8-(phenylthiomethyl) ergoline] | – | – | 210 | 8 | 26 | – | – | – | – | – | – |
| C=C1C=C2c3cccc4c3[C@@H](CN4)C[C@H]2N(C)C1 [Example 4, (3β)-2,3-Dihydrolysergene] | – | – | 3820 | 80 | 48 | – | – | – | – | – | – |

— patent US4798834A, “Optionally substituted (3β-9,10-didehydro-2,3-dihydro ergoline as serotonergic function enhancement” (Eli Lilly and Company, priority 1987, dated 1989)
